Molecular target: T1, GajA (Bacillus cereus, UniProt J8H9C1)
T1 construct: full length residues 1-578, N-terminal 6xHis tag kept (pET28a, NdeI/NotI), expressed in E. coli BL21(DE3), 69 kDa with tag; without GajB
Experiment: inhibition of lambda955 DNA cleavage, agarose gel densitometry
Assay type: biochemical
Conditions: 20 nM lambda955 DNA, 200 nM enzyme, 20 mM Tris-HCl pH 9, 1 mM MgCl2, 37 °C, 5 min; allosteric, ATPase-like domain

T1 sequence (J8H9C1 whole entry, the tested form may be a part): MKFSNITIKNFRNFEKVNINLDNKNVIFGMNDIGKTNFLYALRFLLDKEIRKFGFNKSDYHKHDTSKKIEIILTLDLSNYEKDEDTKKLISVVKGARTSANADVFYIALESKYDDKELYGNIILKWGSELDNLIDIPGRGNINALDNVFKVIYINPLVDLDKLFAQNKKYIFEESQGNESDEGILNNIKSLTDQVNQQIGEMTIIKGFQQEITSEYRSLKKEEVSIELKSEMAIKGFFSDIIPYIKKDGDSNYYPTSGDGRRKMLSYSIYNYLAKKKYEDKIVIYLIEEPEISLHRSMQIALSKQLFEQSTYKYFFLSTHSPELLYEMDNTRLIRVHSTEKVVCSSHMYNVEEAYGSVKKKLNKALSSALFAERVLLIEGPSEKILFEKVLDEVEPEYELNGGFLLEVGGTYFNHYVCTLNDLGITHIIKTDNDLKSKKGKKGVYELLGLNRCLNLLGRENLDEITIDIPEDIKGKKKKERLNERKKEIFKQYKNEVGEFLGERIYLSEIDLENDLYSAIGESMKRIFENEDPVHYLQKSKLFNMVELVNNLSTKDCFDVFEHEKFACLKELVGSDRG

SMILES: Nc1ncnc2c1ncn2[C@@H]1O[C@H](COP(=O)(O)OP(=O)(O)O)[C@@H](O)[C@H]1O [ADP]
- inhibition: strongly inhibited by all NTP and dNTP, even ADP, while AMP had no significant effect
